Data taken from patent publication US5444042A, “Method of treatment of neurodegeneration with calpain inhibitors” (Cortex Pharmaceuticals, priority 1994, dated 1995).
Where a SMILES comes first, the peptide text is derived from it. [ ]: non-standard residue; d: D form. The star is where a group is joined. Nle = CCCC[C@H](N)C(=O)O; Cbz = O=C(OCc1ccccc1)*; CH2Cl = ClC*

Assays:
[1] = system: Calpain in crude brain extracts; experiment: Ca2+-stimulated spectrin proteolysis in crude brain extracts (Example 2); format: biochemical; details: for inhibition of spectrin proteolysis in crude brain extracts: 100 μM
In short: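 Brain tissue was homogenized in 10 mM Tris pH 7.4, 0.32 M sucrose, 1 mM EGTA and 1 mM DTT, and nuclei and debris were removed. Calpain activity was scored as Ca^2+-stimulated proteolysis of endogenous spectrin.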

[2] = system: Calpain II; experiment: Kapp/[I] progress curve method, Calpain II (Table 1C); format: biochemical; design: unit not given here; details: Rabbit Calpain II, Suc-leu-tyr-amidomethylcoumarin
Procedure: (§1) The Halo-Ketone Peptides, like the substituted isocoumarins, are irreversible inhibitors of Calpain. We determined the Kapp /[I] values for various members of this class of compounds against Calpains I and II. For comparison, we also determined these values against the additional thiol proteases Papain and Cathepsin B for at least one Halo-Ketone Peptide.
(§2) We assayed Calpain I and II using Suc-leu-tyr-amidomethylcoumarin. Papain was assayed using benzoyl-arg-4-nitroanilide, and Cathepsin B (bovine) was assayed using CBZ-lys-4-nitrophenyl ester. We followed the progress curve method of Tian and Tsou, Biochemistry, 21:1028-1032 (1982), the disclosure of which is hereby incorporated by reference, to derive kinetic data. Briefly, this method makes use of the equation: [formula] where [P.infin. ] represents the concentration of product formed at a time approaching infinity, A is the Kapp in the presence of substrate (S), K is the Michaelis constant and [Y] is the concentration of the inhibitor. Since [S] and [Y] are known and V and K can be determined, Kapp can be readily determined.

[3] = system: Calpain within platelets; experiment: Platelet membrane permeation assay, spectrin proteolysis (Examples 4A, 4B); format: cell-based, rat; details: 100 μM, A23187 1 μM
In short: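 Rat (Sprague-Dawley) platelets at 10^7 cells/ml in HEPES buffer pH 7.4, preincubated 5 min with inhibitor, then 5 min with 1 μM A23187 to activate calpain. Spectrin proteolysis assessed by SDS-PAGE and anti-spectrin immunoblot, quantified by densitometry.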

[4] = molecular target: Calpain I (Rattus norvegicus, UniProt P97571); experiment: Kapp/[I] progress curve method, rat Calpain I (Table 1C); format: biochemical; details: Suc-leu-tyr-amidomethylcoumarin
Procedure: as §1, §2

[5] = system: hippocampal slices; experiment: Hippocampal slice evoked potential recovery after anoxia (Example 7B); format: cell-based, rat
Procedure: As in Example 7A, hippocampal slices (400 μm) were prepared from Sprague Dawley rats (6-7 weeks) and maintained in an interface chamber at 35° C. using conventional techniques, i.e. the lower surface of the slice received a constant perfusion (0.5 ml/min) of an artificial cerebrospinal fluid (ACSF), while the upper surface was exposed to a moist atmosphere of O2 :CO2 (95%:5%) exchanged at a rate of 2 L/min. The ACSF medium contains (in mM): NaCl (124), KCl (3), KHPO4 (1.25), MgSO4 (2.5), CaCl2 (3.4), NaHCO3 (26) and D-Glucose (10). Field excitatory post-synaptic responses were recorded from stratum radiatum of CA1b in response to stimulation of Schaffer-commissural fibers in CA1a or CA1c. The depth of the recording electrode was optimized and evoked responses were collected at a rate of one evoked response every 30 seconds.
After establishing a stable baseline of evoked responses (approximately 10 minutes), ACSF containing Calpain Inhibitor was washed into the chamber and slices were incubated for a period of one hour. After incubation, evoked responses were again recorded and the change in the amplitude of the responses from baseline levels was noted. No effect of the inhibitors tested on baseline evoked responses was observed.
For anoxia experiments, incubation in the drug-containing medium was followed by replacement of the O2 :CO2 (95%:5%) atmosphere with N2 :CO2 (95%:5%). Slices were exposed to this anoxic environment until disappearance of the pre-synaptic fiber volley and for two minutes (severe anoxia) longer (total time in anoxic environment approximately 7-8 minutes in control case). Effects of Calpain Inhibitors on the functional recovery of the slices after the anoxic episode were then measured. Recovery of the evoked potential (EPSP) slope and amplitude by the drug treated slices can be compared to control slices to determine the relative efficacy of various Calpain Inhibitors.

[6] = system: N18-RE-105 cells; experiment: Glutamate-induced cell death, MTT conversion (Example 5); format: cell-based; details: 5 mM glutamate, inhibitor 3 μg/ml, 19 hours
Procedure: Stock cultures of N18-RE-105 cells were maintained in Dulbecco's modified Eagle's medium (DMEM) containing 10% fetal bovine serum (FBS) and supplemented with hypoxanthine, aminopterin and thymidine (HAT). Subconfluent cultures were split and plated into 96-well plates. Twenty-four hours after plating the cells were exposed to fresh media containing glutamate and various concentrations of Calpain inhibitors. Control cells were not treated with glutamate. Conversion of MTT was measured 19 hours later as described. Nineteen hours after the onset of exposure, cell viability was quantitated by measuring the extent to which the cells convert 3(4,5-dimethylthiazol-2-yl)-2-5-diphenyltetrazolium bromide (MTT) to a blue formazan product, which occurs in the mitochondria of living but not dead cells (Pauwels et al., 1988). A higher absorbance is indicative of greater cell viability.

[7] = system: rats injected with kainic acid; experiment: Kainate-induced behavioral symptoms and convulsions (Example 8A); format: in vivo, rat; details: 12 mg/kg kainic acid i.p., 4.6 mg calpain inhibitor in DMSO i.p., observed six hours
Procedure: Rats (male Sprague-Dawley, 200±5 gms) were injected intraperitoneally with 12 mg/kg kainic acid in saline vehicle and ether 2001 μl DMSO (dimethylsulfoxide) or 4.6 mg calpain inhibitor dissolved in the same volume of DMSO.

[8] = system: hippocampal slices; experiment: Hippocampal slice survival after 10 min anoxia (Example 7A); format: cell-based, rat
Procedure: Hippocampal slices (400 um) were prepared from Sprague Dawley rats (6 to 7 weeks) and maintained in an interface chamber at 35° C. using conventional techniques, i.e., the lower surface of the slice received a constant perfusion (0.5 ml/min) of ACSF, while the upper surface was exposed to a moist atmosphere of O2 :CO2 (95%:5%) exchanged at a rate of 2 L/min. The ACSF medium contains (in mM): NaCl (124), KCl (3), KHPO4 (2.5), CaCl (3.4), NaHCO3 (26) and D-Glucose (10). Field excitatory post-synaptic responses were recorded from stratum radiatum of CAlb in response to stimulation of Schaffer-commissural fibers in CAla or CAlc. The depth of the recording electrode was optimized and evoked responses were collected at a rate of one evoked response every 30 seconds.
For the initial screening procedure, 14 to 16 slices are harvested from the hippocampus of a single rat and placed in a common ACSF bath. Each slice is tested in sequence to determine the magnitude of its pre-anoxic evoked response. Five stimulation pulses (each 0.1 ms (millisecond) in duration) were presented over a 15 second interval. The largest evoked response was noted and recorded for each slice.
After the one hour drug incubation period, the oxygen-enriched atmosphere of the chamber was made anoxic by substituting nitrogen for oxygen (N2 =95%; CO^2 =5%). The slices were retained in this anoxic environment for 10 minutes, following which the oxygen-enriched atmosphere (O^2 =95%; CO2 =5%) was reestablished.
The slices were given the opportunity to recover for 30 minutes following reoxygenation whereupon each was stimulated and the maximum evoked potential determined, as described above during the pre-anoxia period. Those slices which, after anoxia, produced a maximum evoked potential of greater than 50% of that observed prior to anoxia were defined as surviving slices.

[9] = molecular target: T1, Calpain I (Homo sapiens, UniProt P07384); experiment: Kapp/[I] progress curve method, human Calpain I (Table 1C); format: biochemical; details: Suc-leu-tyr-amidomethylcoumarin
T1 sequence (P07384 1-714): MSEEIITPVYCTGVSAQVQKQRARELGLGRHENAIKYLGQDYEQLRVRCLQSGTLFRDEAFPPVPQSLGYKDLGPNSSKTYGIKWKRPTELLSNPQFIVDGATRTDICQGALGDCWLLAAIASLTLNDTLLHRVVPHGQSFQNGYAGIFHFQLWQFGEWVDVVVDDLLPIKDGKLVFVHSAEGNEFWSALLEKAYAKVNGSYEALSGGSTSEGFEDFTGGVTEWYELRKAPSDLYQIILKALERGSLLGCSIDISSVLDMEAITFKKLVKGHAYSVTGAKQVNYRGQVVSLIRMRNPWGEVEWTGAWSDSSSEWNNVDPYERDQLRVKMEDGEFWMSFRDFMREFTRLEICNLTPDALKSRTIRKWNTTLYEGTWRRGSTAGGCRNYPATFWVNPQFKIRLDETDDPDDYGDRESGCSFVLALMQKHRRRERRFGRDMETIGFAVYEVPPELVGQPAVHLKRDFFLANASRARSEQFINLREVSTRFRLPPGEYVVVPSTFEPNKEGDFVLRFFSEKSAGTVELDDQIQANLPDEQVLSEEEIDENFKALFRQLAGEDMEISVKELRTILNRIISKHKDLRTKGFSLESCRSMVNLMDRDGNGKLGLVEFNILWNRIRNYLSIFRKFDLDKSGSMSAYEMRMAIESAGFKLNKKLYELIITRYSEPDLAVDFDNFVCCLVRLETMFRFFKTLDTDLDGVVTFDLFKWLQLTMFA
T1 sequence (P04632 1-268 partner): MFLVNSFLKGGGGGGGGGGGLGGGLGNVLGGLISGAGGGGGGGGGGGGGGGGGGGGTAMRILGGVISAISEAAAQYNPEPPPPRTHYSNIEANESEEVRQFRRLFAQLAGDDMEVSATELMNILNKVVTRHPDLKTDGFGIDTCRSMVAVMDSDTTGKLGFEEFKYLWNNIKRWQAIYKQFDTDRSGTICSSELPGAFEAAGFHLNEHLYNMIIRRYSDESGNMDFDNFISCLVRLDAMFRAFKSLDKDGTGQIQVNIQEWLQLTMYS
Procedure: as §1, §2

Chain of Calpain I (Rattus norvegicus, UniProt P97571) (P97571 whole entry): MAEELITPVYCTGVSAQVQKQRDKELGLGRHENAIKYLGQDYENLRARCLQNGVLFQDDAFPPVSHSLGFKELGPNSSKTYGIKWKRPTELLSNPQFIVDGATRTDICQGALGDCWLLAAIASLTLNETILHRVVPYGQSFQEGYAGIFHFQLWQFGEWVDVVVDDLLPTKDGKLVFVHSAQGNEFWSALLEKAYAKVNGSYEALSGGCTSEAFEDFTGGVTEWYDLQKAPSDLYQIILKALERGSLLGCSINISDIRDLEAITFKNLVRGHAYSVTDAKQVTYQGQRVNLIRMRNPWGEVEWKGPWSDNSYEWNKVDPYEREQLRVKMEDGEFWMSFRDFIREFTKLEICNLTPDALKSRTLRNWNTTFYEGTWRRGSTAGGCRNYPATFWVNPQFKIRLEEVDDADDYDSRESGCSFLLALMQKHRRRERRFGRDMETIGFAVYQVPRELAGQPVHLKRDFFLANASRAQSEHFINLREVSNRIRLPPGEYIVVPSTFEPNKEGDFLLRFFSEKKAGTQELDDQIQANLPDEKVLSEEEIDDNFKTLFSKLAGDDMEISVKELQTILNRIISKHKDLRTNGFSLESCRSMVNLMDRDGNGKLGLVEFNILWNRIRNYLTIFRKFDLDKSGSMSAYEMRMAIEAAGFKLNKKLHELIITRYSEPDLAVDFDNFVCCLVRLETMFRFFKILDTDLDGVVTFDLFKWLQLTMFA
Chain of Calpain I (Rattus norvegicus, UniProt P97571) (Q64537 whole entry partner): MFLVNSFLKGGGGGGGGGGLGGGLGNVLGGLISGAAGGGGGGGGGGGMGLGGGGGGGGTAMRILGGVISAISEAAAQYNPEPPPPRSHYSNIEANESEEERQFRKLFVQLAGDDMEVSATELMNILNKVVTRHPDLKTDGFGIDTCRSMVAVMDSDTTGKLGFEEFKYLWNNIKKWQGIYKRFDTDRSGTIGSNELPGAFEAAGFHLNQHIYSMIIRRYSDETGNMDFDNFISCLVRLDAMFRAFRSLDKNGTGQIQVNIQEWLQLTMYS

Kapp/[I] CI [4]	Kapp/[I] CI [9]	Compound	inhibition of spectrin proteolysis in crude brain extracts [1]	Kapp/[I] CII [2]	inhibition of Calpain within platelets [3]	inhibition in the system of Example 2 ([1]; concentration not given)	% Recovery of synaptic transmission after anoxia ([5]; Concentration 200, ten minutes anoxia)	period of anoxia required to produce fiber volley disappearance (FIG. 6) ([5]; hippocampal slices)	blue formazan product relative to control without glutamate [6]	kainate-induced behavioral symptoms and convulsions (FIG. 7) [7]	protection of slices from anoxia (FIG. 3) ([8]; 10 minutes anoxic atmosphere)	Survival of slices after ten minutes anoxia ([8]; Dose 200 μM, incubation 2 hours)
25900		CC(=O)N[C@@H](CC(C)C)C(=O)N[C@@H](Cc1ccccc1)C(=O)CCl [Ac-Leu-Phe-CH2 Cl] (HELM PEPTIDE1{[ac].L.F.[ClC[*:1]]}$$$$V2.0)	significant inhibition	33400	significant inhibition							
		CCCC[C@@H](C=O)NC(=O)[C@H](CC(C)C)NC(=O)[C@H](CC(C)C)NC(C)=O [CI1, Ac-Leu-Leu-Nle-H, reference compound] (Ac-Leu-Leu-[Nle]-aldehyde)				showed inhibition	35%	does not significantly lengthen the period of anoxia required to suppress electrical activity	protect N18-RE-105 cells against glutamate toxicity	incidence and severity of convulsions was reduced	protected from the effects of anoxia	53%
284000		CC(C)C[C@H](NC(=O)CNC(=O)OCc1ccccc1)C(=O)N[C@@H](Cc1ccccc1)C(=O)CCl [Z-Gly-Leu-Phe-CH2 Cl, reference compound] (HELM PEPTIDE1{[O=C(OCc1ccccc1)[*:2]].G.L.F.[ClC[*:1]]}$$$$V2.0)	significant inhibition	946000	significant inhibition							
	225000	CC(C)CC(NC(=O)OCc1ccccc1)C(=O)NC(Cc1ccccc1)C(=O)CCl (stereo not drawn) [Z-Leu-Phe-CH2 Cl] (Cbz-Leu-Phe-CH2Cl; configuration not given here)	significant inhibition	585000	significant inhibition							
